Source: patent EP0639183B1, “NITROGEN OXIDES OF AZA- AND DIAZA-ANTHRACENEDIONE DERIVATIVES, THEIR PREPARATION AND THEIR USE AS ANTITUMOR AGENTS” (BOEHRINGER MANNHEIM ITALIA S.P.A., priority 1991, dated 1992)
Converted amounts (≈) assume the structure as drawn. “And” between values parts separate entries of the source, which are not always exact repeats. Equal entries are not always repeated. Where two headings read alike, the source gives them in different places.

How the values were obtained:
[1] = test system: murine L 1210 leukemia; settings: cited from earlier work
[2] = test system: P 388 MURINE LEUKEMIA; assay: P 388 murine leukemia model in vivo (iv/iv 1,4,7); parameters: species or system CD2Fl mice
Description: Studies of the biological activity "in vivo" of representative compounds of the invention were performed using the P 388 and L 1210 murine leukemia models.
(§1) P 388 Murine leukemia cells were intravenously (iv) injected in CD2Fl mice. Treatment was initiated approximately 24 hours after tumor transplantation and dosages of the drug were administered iv according to preestablished protocols, usually at 3-day intervals. The studies were done over a 60 day period and the date of death for each animal was recorded. The % T/C was determined using the median survival time (MST) for each group according to the formula % T/C = [(MST treated)/(MST control)] x 100. [formula]

[3] = test system: MURINE LEUKEMIA L1210; assay: L 1210 murine leukemia model in vivo (iv/iv 1,4,7); parameters: species or system CD2Fl mice
Description: The antitumor activity of representative compounds of this invention was evaluated also in the L 1210 murine leukemia model.
as §1, with “L 1210” for “P 388 Murine”, “mice and treatment” for “mice. Treatment”, “transplantation. Dosages” for “transplantation and dosages”, “drugs” for “drug”, “60-day” for “60 day”

[4] = test system: human colon adenocarcinoma cell line (Lovo); assay: in vitro cytotoxic activity, MTT assay, Lovo cell line; assay type: cell-based; settings: 144 hours drug-exposure
Description: (§2) The evaluation of the "in vitro" cytotoxic activity of the compounds of the invention was performed using a human colon adenocarcinoma cell line (Lovo) isolated from a metastatic nodule and a subline with aquired resistance to a number of antitumor agents, among which doxorubicin, VP-16 and vincristine. […] Cancer, (1986), 54, 515). The compounds were tested according to the MTT assay (Mosman, T. "Rapid Colorimetric assay for cellular growth and survival: application to proliferation and cytotoxicity assay", J. Immunol. Methods, (1983), 65, 55-63; Green. L.M., "Rapid Colorimetric assay for cell viability; application to the quantitation of cytotoxic and growth inhibitory lymphokines", J. Immunol. Methods, (1984), 70, 257-268) in comparison with ametantrone and doxorubicin.

[5] = test system: Lovo/DX; assay: in vitro cytotoxic activity, MTT assay, resistant subline Lovo/DX; assay type: cell-based, human; settings: for resistance index RI (ratio of the IC50 for the resistant cell line to the IC50 for the sensitive cell line): Lovo/DX versus Lovo
Description: as §2

[6] = in animals; cited from earlier work
[7] = test system: murine L 1210 leukemia; settings: cited from earlier work; for in vivo T/C: murine L 1210 leukemia
[8] = P 388, iv on days 1,4,7, Dose 2 mg/kg/day
[9] = P 388, iv on days 1,4,7, Dose 3 mg/kg/day
[10] = P 388, iv on days 1,4,7, Dose 4 mg/kg/day
[11] = L1210, iv on days 1,4,7, Dose 2 mg/kg/day
[12] = L1210, iv on days 1,4,7, Dose 3 mg/kg/day
[13] = P 388, iv on days 1,4,7, Dose 18 mg/kg/day
[14] = P 388, iv on days 1,4,7, Dose 27 mg/kg/day
[15] = L1210, iv on days 1,4,7, Dose 40 mg/kg/day
[16] = L1210, iv on days 1,4,7, Dose 60 mg/kg/day

Compound: CCN(CC)CCNc1ccc(NCCN(CC)CC)c2c1C(=O)c1ccccc1C2=O [Compound 6b]
- in vitro ID50 [1]: 0.30 µg/mL

Compound: O=C1c2c(O)ccc(O)c2C(=O)c2c(NCCNCCO)ccc(NCCNCCO)c21 [MITOX, 5,8-dihydroxy-1,4-bis([2-(2-hydroxyethylamino)ethyl]amino]anthracene-9,10-dione]
- T/C% (range) [2, 8]: 171(154-212) %
- TOX (Number of toxic deaths/total number of mice) [2, 8]: 0/50
- T/C% (range) [2, 9]: 185(167-217) %
- TOX (Number of toxic deaths/total number of mice) [2, 9]: 12/84
- T/C% (range) [2, 10]: 118(89-133) %
- TOX (Number of toxic deaths/total number of mice) [2, 10]: 20/24
- LTS [3, 11]: 0/8
- T/C% (range) [3, 11]: 208%
- TOX (Number of toxic deaths/total number of mice) [3, 11]: 0/8
- LTS [3, 12]: 0/8
- T/C% (range) [3, 12]: 216%
- TOX (Number of toxic deaths/total number of mice) [3, 12]: 0/8

Compound: O=C1c2ccccc2C(=O)c2c(NCCNCCO)ccc(NCCNCCO)c21 [ametantrone, 1,4-bis{[2-(2-hydroxyethylamino)ethyl]amino]anthracene-9,10-dione]
- IC50 [4]: 0.33 ± 0.1 µg/mL (≈ 0.8 µM)
- resistance index RI (ratio of the IC50 for the resistant cell line to the IC50 for the sensitive cell line) [5]: 101.2
- less potent and cardiotoxic than mitoxantrone [6]: about 10 fold

Compound: CN(C)CCNc1ccc(NCCN(C)C)c2c1C(=O)c1ccccc1C2=O [Compound 6a]
- in vitro ID50 [1]: 0.08 µg/mL
- in vivo T/C ([7]; Dose 30 mg/kg): 150

Compound: CCN(CC)CCNc1ccc(NCCN(CC)CC)c2c1C(=O)c1cccnc1C2=O [Compound 5b]
- in vitro ID50 [1]: 2.4 µg/mL
- in vivo T/C ([7]; Dose 100 mg/kg): toxic

Compound: NCCNc1ccc(NCCN)c2c1C(=O)c1cc[n+]([O-])cc1C2=O.O=C(O)/C=C\C(=O)O.O=C(O)/C=C\C(=O)O [Compound 7b, 6,9-bis[N-(2-aminoethyl)amino]benzo[g]isoquinoline-5,10-dione-2-oxide dimaleate]
- T/C% (range) [2, 13]: 122%
- TOX (Number of toxic deaths/total number of mice) [2, 13]: 0/8
- T/C% (range) [2, 14]: 133%
- TOX (Number of toxic deaths/total number of mice) [2, 14]: 0/8
- TOX (Number of toxic deaths/total number of mice) ([2]; P 388, iv on days 1,4,7, Dose 40 mg/kg/day): 1/24
- T/C% (range) ([2]; P 388, iv on days 1,4,7, Dose 40 mg/kg/day, dimaleate, 40 mg/kg/day): 144% and 166% and 194%
- TOX (Number of toxic deaths/total number of mice) ([2]; P 388, iv on days 1,4,7, Dose 60 mg/kg/day): 0/17
- T/C% (range) ([2]; P 388, iv on days 1,4,7, Dose 60 mg/kg/day, dimaleate, 60 mg/kg/day): 200% and 225%
- TOX (Number of toxic deaths/total number of mice) ([2]; P 388, iv on days 1,4,7, Dose 80 mg/kg/day): 4/17
- T/C% (range) ([2]; P 388, iv on days 1,4,7, Dose 80 mg/kg/day, dimaleate, 80 mg/kg/day): 211% and 262%
- LTS [3, 15]: 0/8
- T/C% (range) [3, 15]: 266%
- TOX (Number of toxic deaths/total number of mice) [3, 15]: 0/8
- LTS [3, 16]: 0/10
- T/C% (range) [3, 16]: 333%
- TOX (Number of toxic deaths/total number of mice) [3, 16]: 0/10

Compound: CN(C)CCCNc1ccc(NCCCN(C)C)c2c1C(=O)c1cccnc1C2=O [Compound 5c]
- in vitro ID50 [1]: 1.7 µg/mL

Compound: CN(C)CCNc1ccc(NCCN(C)C)c2c1C(=O)c1cc[n+]([O-])cc1C2=O [Compound 7a, 6,9-bis[N-(2-dimethylaminoethyl)amino]benzo[g]isoquinoline-5,10-dione-2-oxide]
- IC50 [4]: 0.44 µg/mL (≈ 1.11 µM)
- IC50 ([5]; Homo sapiens, Lovo/DX resistant subline): 2.68 µg/mL (≈ 6.74 µM)
- resistance index RI (ratio of the IC50 for the resistant cell line to the IC50 for the sensitive cell line) [5]: 6.1

Compound: CN(C)CCNc1ccc(NCCN(C)C)c2c1C(=O)c1cccnc1C2=O [Compound 5a]
- in vitro ID50 [1]: 0.16 µg/mL
- antitumor activity in vivo (in words) ([7]; as reported in table II): inactive in vivo
- in vivo T/C ([7]; Dose 50 mg/kg): 130

Compound: COc1cccc2c1C(=O)c1c(O)c3c(c(O)c1C2=O)C[C@@](O)(C(=O)CO)C[C@@H]3O[C@H]1C[C@H](N)[C@H](O)[C@H](C)O1 [doxorubicin]
- resistance index RI (ratio of the IC50 for the resistant cell line to the IC50 for the sensitive cell line) [5]: 142.7
